Results: US20230062119A1, “USE OF BIOMARKERS IN IDENTIFYING PATIENTS THAT WILL BE RESPONSIVE TO TREATMENT WITH A PRMT5 INHIBITOR” (Merck Sharp & Dohme LLC, priority 2019, published 2023)
Like-named read-outs stand apart in the source and are kept apart here.

Biological target: T1, Full-length (FL)-PRMT5-MEP50 enzyme complex (Homo sapiens, UniProt O14744)
T1 construct: Full-length (FL)-PRMT5-MEP50 enzyme complex (recombinant proteins from baculovirus-transfected Sf21 cells: FL-PRMT5; MW=73837 kDa and FL-MEP50; MW=38614); made in house; host or cells: baculovirus-transfected Sf21 insect cells
T1 sequence (O14744 whole entry): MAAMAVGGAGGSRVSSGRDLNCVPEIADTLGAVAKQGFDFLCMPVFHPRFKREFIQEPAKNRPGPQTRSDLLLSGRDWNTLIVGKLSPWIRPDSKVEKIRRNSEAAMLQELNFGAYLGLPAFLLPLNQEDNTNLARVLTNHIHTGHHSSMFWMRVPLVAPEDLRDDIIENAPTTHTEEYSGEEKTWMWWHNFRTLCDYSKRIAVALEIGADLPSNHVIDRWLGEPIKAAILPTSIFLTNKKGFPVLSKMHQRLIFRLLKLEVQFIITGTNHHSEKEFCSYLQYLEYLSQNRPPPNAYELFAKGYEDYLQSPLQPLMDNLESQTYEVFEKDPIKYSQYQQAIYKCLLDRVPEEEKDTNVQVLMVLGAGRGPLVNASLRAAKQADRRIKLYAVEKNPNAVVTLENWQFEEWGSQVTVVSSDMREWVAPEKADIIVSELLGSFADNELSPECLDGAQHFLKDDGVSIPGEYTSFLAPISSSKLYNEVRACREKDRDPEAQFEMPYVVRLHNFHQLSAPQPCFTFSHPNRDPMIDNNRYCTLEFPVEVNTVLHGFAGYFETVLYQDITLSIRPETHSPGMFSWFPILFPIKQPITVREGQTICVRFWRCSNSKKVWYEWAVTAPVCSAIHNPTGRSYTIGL
T1 sequence (Q9BQA1 whole entry partner): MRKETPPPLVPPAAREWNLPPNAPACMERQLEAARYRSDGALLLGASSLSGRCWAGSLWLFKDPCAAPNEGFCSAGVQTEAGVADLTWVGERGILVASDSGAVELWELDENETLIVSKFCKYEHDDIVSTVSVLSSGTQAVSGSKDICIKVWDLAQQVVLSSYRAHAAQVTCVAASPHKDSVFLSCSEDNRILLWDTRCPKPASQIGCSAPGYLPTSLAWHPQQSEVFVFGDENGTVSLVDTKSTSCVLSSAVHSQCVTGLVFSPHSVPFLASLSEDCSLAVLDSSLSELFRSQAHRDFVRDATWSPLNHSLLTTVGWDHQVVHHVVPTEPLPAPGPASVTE
Assay: PRMT5-MEP50 Enzyme Methylation Assay
Type: biochemical
Details: 1.0 nM PRMT5-MEP50, 75 nM biotinylated peptide, 15 μM SAM
Protocol: PRMT5-MEP50 biochemical assay is a direct measurement of the methylation activity of the enzyme complex on a short peptide substrate derived from the N-terminus of H4 histone. Methylation experiment is performed with recombinant PRMT5-MEP50 protein complex. The assessment of inhibitory effect of small molecules is measured by the effectiveness of the compounds to inhibit this reaction (EC50).
In this assay, the potency (EC50) of each compound was determined from a twenty-point (1:2 serial dilution; top compound concentration of 100000 nM) titration curve using the following outlined procedure. To each well of a white ProxiPlus 384 well-plate, 100 nL of compound (1% DMSO in final assay volume of 10 μL) was dispensed, followed by the addition of 8 μL of 1× assay buffer (50 mM Bicine pH 8.0, 1 mM DTT, 0.004% Tween20, 0.01% BSA) containing 1.25 nM of Full-length (FL)-PRMT5-MEP50 enzyme complex (recombinant proteins from baculovirus-transfected Sf21 cells: FL-PRMT5; MW=[…] and FL-MEP50; MW=38614) and 1 μL of 150 μM S-(5′-Adenosyl)-L-Methionine Chloride (SAM). Plates were sealed and placed in a 37° C. humidified chamber for a 60 minutes pre-incubation with compound. Subsequently, each reaction was initiated by the addition of 1 μL 1× assay buffer containing 750 nM biotinylated H4R3(Mel) peptide. The final reaction in each well of 10 μL consists of 1.0 nM PRMT5-MEP50, 75 nM biotinylated-peptide, and 15 μM SAM. Methylation reactions proceeded for 150 minutes in a sealed plate at 37° C. Reactions were immediately quenched by the addition of 1 μL of 5% formic acid. Plates were then frozen and shipped to SAMDI™ Tech Inc. to determine the percent conversion from H4R3(Mel) to H4R3(Me2). Dose-response curves were generated by plotting percent effect (% product conversion; Y-axis) vs. Log 10 compound concentrations (X-axis). EC50 values were determined by non-linear regression according to models for either sigmoidal (4 parameters) or biphasic (7 parameters) dose-response curves.

[1] = one EC50: 4 parameters single site sigmoidal model, EC50 1: first value of 7 parameters biphasic model, read-out: Enzyme Methylation Assay (EC50 or EC50 1)
[2] = second EC50 of 7 parameters biphasic model, read-out: Enzyme Methylation Assay (EC50 2)

Structure (SMILES) | EC50 [1] | EC50 [2]
C#C[C@@]1(O)[C@@H](COc2ccc3cc(Br)c(N)nc3c2)O[C@@H](n2ccc3c(N)ncnc32)[C@@H]1O [Example 3, (2R,3S,4R,5R)-2-(((2-amino-3-bromoquinolin-7-yl)oxy)methyl)-5-(4-amino-7H-pyrrolo[2,3-d]pyrimidin-7-yl)-3-ethynyltetrahydrofuran-3,4-diol] | 0.8 nM | 193 nM
C[C@]1(CCc2ccc3cc(Br)c(N)nc3c2)O[C@@H](n2ccc3c(N)ncnc32)[C@H](O)[C@]1(C)O [Example 4, (2R,3S,4R,5R)-2-(2-(2-amino-3-bromoquinolin-7-yl)ethyl)-5-(4-amino-7H-pyrrolo[2,3-d]pyrimidin-7-yl)-2,3-dimethyltetrahydrofuran-3,4-diol] | 2.4 nM | 288 nM
Nc1nc2cc(O[C@H]3CC[C@@]4(O)[C@@H]3O[C@@H](n3ccc5c(Cl)ncnc53)[C@@H]4O)ccc2cc1Br [Example 5, (2R,3R,3aS,6S,6aR)-6-((2-amino-3-bromoquinolin-7-yl)oxy)-2-(4-chloro-7H-pyrrolo[2,3-d]pyrimidin-7-yl)hexahydro-2H-cyclopenta[b]furan-3,3a-diol] | 0.8 nM | –
Nc1nc2cc(O[C@H]3CC[C@@]4(O)[C@@H]3O[C@@H](n3ccc5c(N)ncnc53)[C@@H]4O)ccc2cc1Br [Example 6, (2R,3R,3aS,6S,6aR)-6-((2-amino-3-bromoquinolin-7-yl)oxy)-2-(4-amino-7H-pyrrolo[2,3-d]pyrimidin-7-yl)hexahydro-2H-cyclopenta[b]furan-3,3a-diol] | 0.6 nM | –
Cc1ncnc2c1ccn2[C@@H]1O[C@@H]2[C@@H](Oc3ccc4cc(Br)c(N)nc4c3)CC[C@]2(O)[C@H]1O [Example 7, (2R,3R,3aS,6S,6aR)-6-((2-amino-3-bromoquinolin-7-yl)oxy)-2-(4-methyl-7H-pyrrolo[2,3-d]pyrimidin-7-yl)hexahydro-2H-cyclopenta[b]furan-3,3a-diol] | 0.7 nM | –
C[C@@]1(O)[C@@H](COc2ccc3cc(Br)c(N)nc3c2)O[C@@H](n2ccc3c(N)ncnc32)[C@@H]1O [Example 10, (2R,3S,4R,5R)-2-(((2-amino-3-bromoquinolin-7-yl)oxy)methyl)-5-(4-amino-7H-pyrrolo[2,3-d]pyrimidin-7-yl)-3-methyltetrahydrofuran-3,4-diol] | 0.5 nM | 22 nM
C[C@@]1(O)[C@@H](COc2ccc3cc(Br)c(N)nc3c2)O[C@@H](n2ccc3c(Cl)ncnc32)[C@@H]1O [Example 11, (2R,3S,4R,5R)-2-{[(2-amino-3-bromoquinolin-7-yl)oxy]methyl}-5-(4-chloro-7H-pyrrolo[2,3-d]pyrimidin-7-yl)-3-methyltetrahydrofuran-3,4-diol] | 0.9 nM | 501 nM
COc1ncnc2c1ccn2[C@@H]1O[C@](C)(COc2ccc3cc(Br)c(N)nc3c2)[C@@H](O)[C@H]1O [Example 12, (2R,3S,4R,5R)-2-(((2-amino-3-bromoquinolin-7-yl)oxy)methyl)-5-(4-methoxy-7H-pyrrolo[2,3-d]pyrimidin-7-yl)-2-methyltetrahydrofuran-3,4-diol] | 33 nM | 20900 nM
C[C@]1(COc2ccc3cc(Br)c(N)nc3c2)O[C@@H](n2ccc3c(N)ncnc32)[C@H](O)[C@@H]1O [Example 13, (2R,3S,4R,5R)-2-(((2-amino-3-bromoquinolin-7-yl)oxy)methyl)-5-(4-amino-7H-pyrrolo[2,3-d]pyrimidin-7-yl)-2-methyltetrahydrofuran-3,4-diol] | 0.5 nM | 89 nM
C[C@@]1(O)[C@@H](CCc2ccc3cc(Br)c(N)nc3c2)O[C@@H](n2ccc3c(N)ncnc32)[C@@H]1O [Example 14, (2R,3S,4R,5R)-2-(2-(2-amino-3-bromoquinolin-7-yl)ethyl)-5-(4-amino-7H-pyrrolo[2,3-d]pyrimidin-7-yl)-3-methyltetrahydrofuran-3,4-diol] | 1.3 nM | 182 nM
C[C@]1(CCc2ccc3cc(Br)c(N)nc3c2)C[C@@H](n2ccc3c(N)ncnc32)[C@H](O)[C@@H]1O [Example 15, (1S,2R,3S,5R)-3-[2-(2-amino-3-bromo-7-quinolinyl)ethyl]-5-(4-amino-7H-pyrrolo[2,3-d]pyrimidin-7-yl)-3-methyl-1,2-cyclopentanediol] | 0.8 nM | –
Nc1nc2c(F)c(C[C@@H]3CC[C@@]4(O)[C@@H]3O[C@@H](n3ccc5c(N)ncnc53)[C@@H]4O)ccc2cc1F [Example 20, (2R,3R,3aS,6S,6aR)-6-[(2-amino-3,8-difluoroquinolin-7-yl)methyl]-2-(4-amino-7H-pyrrolo[2,3-d]pyrimidin-7-yl)hexahydro-3aH-cyclopenta[b]furan-3,3a-diol] | 0.5 nM | –
Nc1nc2cc(C[C@@H]3CC[C@@]4(O)[C@@H]3O[C@@H](n3ccc5c(N)ncnc53)[C@@H]4O)cc(F)c2cc1Cl [Example 21, (2R,3R,3aS,6S,6aR)-6-[(2-amino-3-chloro-5-fluoroquinolin-7-yl)methyl]-2-(4-amino-7H-pyrrolo[2,3-d]pyrimidin-7-yl)hexahydro-3aH-cyclopenta[b]furan-3,3a-diol] | 0.8 nM | –
Cc1ncnc2c1ccn2[C@@H]1O[C@@H]2[C@H](Cc3ccc4cc(Cl)c(N)nc4c3F)CC[C@]2(O)[C@H]1O [Example 22, (2R,3R,3aS,6S,6aR)-6-[(2-amino-3-chloro-8-fluoroquinolin-7-yl)methyl]-2-(4-methyl-7H-pyrrolo[2,3-d]pyrimidin-7-yl)hexahydro-3aH-cyclopenta[b]furan-3,3a-diol] | 1 nM | –

The remaining lines, values ahead:

EC50 [1] | EC50 [2] | Structure (SMILES)
0.5 nM | 56 nM | C[C@@]1(O)[C@@H](COc2ccc3cc(Br)c(N)nc3c2)C[C@@H](n2ccc3c(Cl)ncnc32)[C@@H]1O [Example 1, (1R,2S,3R,5R)-5-(((2-amino-3-bromoquinolin-7-yl)oxy)methyl)-3-(4-chloro-7H-pyrrolo[2,3-d]pyrimidin-7-yl)-1-methylcyclopentane-1,2-diol]
0.5 nM | – | C[C@@]1(O)[C@@H](COc2ccc3cc(Br)c(N)nc3c2)C[C@@H](n2ccc3c(N)ncnc32)[C@@H]1O [Example 2, (1R,2S,3R,5R)-5-(((2-amino-3-bromoquinolin-7-yl)oxy)methyl)-3-(4-amino-7H-pyrrolo[2,3-d]pyrimidin-7-yl)-1-methylcyclopentane-1,2-diol]
0.5 nM | – | Cc1ncnc2c1ccn2[C@@H]1O[C@@H]2[C@H](Cc3ccc4cc(Br)c(N)nc4c3)CC[C@]2(O)[C@H]1O [Example 8, (2R,3R,3aS,6S,6aR)-6-((2-amino-3-bromoquinolin-7-yl)methyl)-2-(4-methyl-7H-pyrrolo[2,3-d]pyrimidin-7-yl)hexahydro-2H-cyclopenta[b]furan-3,3a-diol]
0.3 nM | – | Nc1nc2cc(C[C@@H]3CC[C@@]4(O)[C@@H]3O[C@@H](n3ccc5c(N)ncnc53)[C@@H]4O)ccc2cc1Br [Example 9, (2R,3R,3aS,6S,6aR)-6-((2-amino-3-bromoquinolin-7-yl)methyl)-2-(4-amino-7H-pyrrolo[2,3-d]pyrimidin-7-yl)hexahydro-2H-cyclopenta[b]furan-3,3a-diol]
0.4 nM | – | Cc1ncnc2c1ccn2[C@@H]1C[C@@H]2[C@H](Cc3ccc4cc(F)c(N)nc4c3)CC[C@]2(O)[C@H]1O [Example 16, (1S,2R,3aR,4S,6aR)-4-((2-amino-3-fluoroquinolin-7-yl)methyl)-2-(4-methyl-7H-pyrrolo[2,3-d]pyrimidin-7-yl)hexahydropentalene-1,6a(1H)-diol]
0.3 nM | – | Cc1ncnc2c1ccn2[C@@H]1C[C@@H]2[C@H](Cc3ccc4cc(Cl)c(N)nc4c3)CC[C@]2(O)[C@H]1O [Example 17, (1S,2R,3aR,4S,6aR)-4-((2-amino-3-chloroquinolin-7-yl)methyl)-2-(4-methyl-7H-pyrrolo[2,3-d]pyrimidin-7-yl)hexahydropentalene-1,6a(1H)-diol]
0.4 nM | 229 nM | Cc1ncnc2c1ccn2[C@@H]1C[C@@H]2[C@@H](Cc3ccc4cc(F)c(N)nc4c3)CC[C@]2(O)[C@H]1O [Example 18, (1S,2R,3aR,4R,6aR)-4-((2-amino-3-fluoroquinolin-7-yl)methyl)-2-(4-methyl-7H-pyrrolo[2,3-d]pyrimidin-7-yl)hexahydropentalene-1,6a(1H)-diol]
0.4 nM | – | Cc1ncnc2c1ccn2[C@@H]1C[C@@H]2[C@H](Cc3ccc4cc(Br)c(N)nc4c3)CC[C@]2(O)[C@H]1O [Example 19, (1S,2R,3aR,4S,6aR)-4-((2-amino-3-bromoquinolin-7-yl)methyl)-2-(4-methyl-7H-pyrrolo[2,3-d]pyrimidin-7-yl)hexahydropentalene-1,6a(1H)-diol]
